Measured values: paper PMC5614982, “Impact of Gastric H^+/K^+-ATPase rs2733743 on the Intragastric pH-Values of Dexlansoprazole Injection in Chinese Subjects” (Frontiers in Pharmacology, 2017)
“And” between values parts separate entries of the source, which are not always exact repeats. Equal entries are not always repeated. Marks after values point to notes of the source that are not given here.

System: intragastric pH
Test: 24-h intragastric pH monitoring after single intravenous dexlansoprazole in healthy Chinese subjects
Format: in vivo, human
Description: Dexlansoprazole injection (30 mg per vial) used in the PK and PD study was manufactured by Nanjing Yoko Pharma Co., Ltd. (Nanjing, China). Subjects received an intravenous infusion of 20 or 30 mg dexlansoprazole injection in sterile saline solution (100 mL/h, 60 min). The study drug was administrated with an infusing pump (SA213, Lifepum, Beijing, China) and given through an intravenous catheter in the antecubital vein opposite to the one from which blood samples were taken.
An ambulatory pH recorder (Orion II, MMS, USA) with a disposable pH catheter (VersaFlex, MMS, USA) was used to monitor intragastric pH. The electrode was placed in water for at least 10 min and then calibrated using standard buffer solutions (pH 1.07 and 7.01) before intubation. Both calibration and intubation processes were conducted under the guidance of MMS Virtual Instructor Program. The catheter, trans nasally placed 10 cm under the lower esophageal sphincter, was identified by a sharp decrease in pH (Wang et al., [2010], [2011]). Subjects were intubated on baseline and the day of dosing at about 7:30 a.m., and the intragastric pH data were recorded continuously for 24 h from 8:00 a.m. Intragastric pH was sampled every second, and the data were stored in a MMS Database program (MMS, USA). The PD parameters including Median (pH), Mean (pH), TpH≥3 (%), TpH≥4 (%), TpH≥6 (%), TpH≥6, and AUC^pH−t were analyzed by the MMS Database program.
Median (pH) and mean (pH) were well-investigated in most studies, and the percentage time of pH ≥ 4 (or pH ≥ 4 holding time ratio) was the benchmark for predicting clinical efficacy of PPIs in treating acid-related diseases (Metz et al., [2009]). Novel parameter TpH≥6 (time to first gastric pH ≥ 6, min) and AUCτ 1-τ 2pH-t (area under pH-time curve from τ1 to τ2, pH·s) were defined to evaluate the velocity and extent of pharmacodynamics with more accuracy. All parameters were calculated and compared according to time periods of 0–24, 0–4, 4–10, 10–14, and 14–24 h post dosing.
The parameter AUCτ 1-τ 2pH-t was calculated as follows:
Where t represented the time duration measured by seconds, AUCτ 1-τ 210-t was the area between the pH line = 10 and the pH-time curve, which was generated by the MMS software.
Baseline-adjusted PD parameters were calculated as follows: for example, ΔAUC^pH−t = AUC^pH−t − AUC^pH−tbaseline, ΔMean (pH) = Mean (pH) − Mean (pH)^baseline, and ΔMedian (pH) = Median (pH) − Median (pH)^baseline.

[1] = 30 mg iv, CYP2C19 EM (n = 11), 0–4 h
[2] = 30 mg iv, CYP2C19 EM (n = 11), 0–24 h
[3] = 30 mg iv, CYP2C19 EM (n = 11), 14–24 h
[4] = 30 mg iv, CYP2C19 EMs, H+/K+-ATPase Het (n = 8), 0–4 h
[5] = 30 mg iv, CYP2C19 EMs, H+/K+-ATPase Het (n = 8), 0–24 h
[6] = 30 mg iv, CYP2C19 EMs, H+/K+-ATPase Het (n = 8), 14–24 h
[7] = 30 mg iv, CYP2C19 EMs, H+/K+-ATPase Hom (n = 7), 0–4 h
[8] = 30 mg iv, CYP2C19 EMs, H+/K+-ATPase Hom (n = 7), 0–24 h
[9] = 30 mg iv, CYP2C19 EMs, H+/K+-ATPase Hom (n = 7), 14–24 h

## Cc1c(OCC(F)(F)F)ccnc1C[S@@+]([O-])c1nc2ccccc2[nH]1 [dexlansoprazole]
20 mg group
  time to first gastric pH ≥ 6 (TpH≥6): 76 (± 29) min and 76 ± 29 min
20 mg iv, 0–4 h
  Mean (pH): 4.3 ± 1.5 pH
  Median (pH): 4.6 ± 2.1 pH
  TpH≥3(%): 57.5 ± 22.1 %
  TpH≥4(%): 46.5 ± 26.3 %
  TpH≥6(%): 33.2 ± 29.4 %
  ΔMean (pH): 2.1 ± 1.1 pH
  ΔMedian (pH): 2.5 ± 1.9 pH
  ΔTpH≥3(%): 47.1 ± 20.6%
  ΔTpH≥4 (%): 39.0 ± 22.3 %
  ΔTpH≥6(%): 27.6 ± 24.2 %
20 mg iv, 0–24 h
  Mean (pH): 4.9 ± 1.2 pH
  Median (pH): 4.9 ± 1.5 pH
  TpH≥3(%): 68.5 ± 20.9 %
  TpH≥4(%): 60.4 ± 22.2 %
  TpH≥6(%): 40.1 ± 21.3 %
  ΔMean (pH): 2.4 ± 1.0 pH
  ΔMedian (pH): 3.1 ± 1.5 pH
  ΔTpH≥3(%): 44.5 ± 19.0 %
  ΔTpH≥4 (%): 45.0 ± 20.7 %
  ΔTpH≥6(%): 33.7 ± 18.8 %
20 mg iv, 4–10 h
  Mean (pH): 6.2 ± 1.4 pH
  Median (pH): 6.3 ± 1.6 pH
  TpH≥3(%): 89.4 ± 23.1%
  TpH≥4(%): 89.0 ± 22.1%
  TpH≥6(%): 64.1 ± 31.0 %
  ΔMean (pH): 3.3 ± 1.4 pH
  ΔMedian (pH): 3.6 ± 1.7 pH
  ΔTpH≥3(%): 51.8 ± 29.6%
  ΔTpH≥4 (%): 65.8 ± 26.9%
  ΔTpH≥6(%): 54.9 ± 32.2 %
20 mg iv, 10–14 h
  Mean (pH): 6.5 ± 1.6 pH
  Median (pH): 6.6 ± 1.6 pH
  TpH≥3(%): 92.7 ± 18.1%
  TpH≥4(%): 88.4 ± 22.7%
  TpH≥6(%): 70.9 ± 35.5%
  ΔMean (pH): 3.3 ± 1.4 pH
  ΔMedian (pH): 3.7 ± 1.5 pH
  ΔTpH≥3(%): 43.8 ± 25.3%
  ΔTpH≥4 (%): 55.5 ± 26.0%
  ΔTpH≥6(%): 63.7 ± 34.3%
20 mg iv, 14–24 h
  Mean (pH): 3.6 ± 1.3 pH
  Median (pH): 3.2 ± 1.4 pH
  TpH≥3(%): 48.7 ± 30.8 %
  TpH≥4(%): 37.6 ± 31.3 %
  TpH≥6(%): 16.3 ± 19.3 %
  ΔMean (pH): 1.6 ± 1.1 pH
  ΔMedian (pH): 1.5 ± 1.3 pH
  ΔTpH≥3(%): 38.8 ± 27.8 %
  ΔTpH≥4 (%): 31.2 ± 28.2 %
  ΔTpH≥6(%): 12.0 ± 14.0 %
30 mg group
  time to first gastric pH ≥ 6 (TpH≥6): 58 (± 25) min and 58 ± 25 min
30 mg iv, 0–4 h
  Mean (pH): 5.5 ± 1.5 pH
  Median (pH): 6.1 ± 2.0 pH
  TpH≥3(%): 72.3 ± 20.8%
  TpH≥4(%): 66.5 ± 23.4%
  TpH≥6(%): 54.6 ± 29.2%
  ΔMean (pH): 3.3 ± 1.1 pH
  ΔMedian (pH): 4.1 ± 1.9 pH
  ΔTpH≥3(%): 57.5 ± 22.2%
  ΔTpH≥4 (%): 56.6 ± 19.6%
  ΔTpH≥6(%): 50.7 ± 26.1%
30 mg iv, 0–24 h
  Mean (pH): 6.1 ± 1.2 pH
  Median (pH): 6.4 ± 1.4 pH
  TpH≥3(%): 85.1 ± 15.7%
  TpH≥4(%): 79.8 ± 19.0%
  TpH≥6(%): 64.2 ± 21.0%
  ΔMean (pH): 3.4 ± 1.1 pH
  ΔMedian (pH): 4.3 ± 1.3 pH
  ΔTpH≥3(%): 58.6 ± 18.5%
  ΔTpH≥4 (%): 62.8 ± 20.3%
  ΔTpH≥6(%): 56.6 ± 18.8%
30 mg iv, 4–10 h
  Mean (pH): 6.9 ± 1.0 pH
  Median (pH): 7.1 ± 0.9 pH
  TpH≥3(%): 96.8 ± 7.6%
  TpH≥4(%): 94.5 ± 11.9%
  TpH≥6(%): 83.2 ± 22.3%
  ΔMean (pH): 4.2 ± 1.2 pH
  ΔMedian (pH): 4.6 ± 1.2 pH
  ΔTpH≥3(%): 60.4 ± 21.3%
  ΔTpH≥4 (%): 75.7 ± 19.2%
  ΔTpH≥6(%): 80.3 ± 22.3%
30 mg iv, 10–14 h
  Mean (pH): 7.2 ± 1.2 pH
  Median (pH): 7.3 ± 1.3 pH
  TpH≥3(%): 96.8 ± 9.5%
  TpH≥4(%): 95.0 ± 12.9%
  TpH≥6(%): 84.5 ± 24.3%
  ΔMean (pH): 4.2 ± 1.5 pH
  ΔMedian (pH): 4.5 ± 1.7 pH
  ΔTpH≥3(%): 54.1 ± 28.5%
  ΔTpH≥4 (%): 70.6 ± 26.4%
  ΔTpH≥6(%): 82.1 ± 23.6%
30 mg iv, 14–24 h
  Mean (pH): 5.5 ± 1.5 pH
  Median (pH): 5.3 ± 1.9 pH
  TpH≥3(%): 78.9 ± 27.7%
  TpH≥4(%): 70.6 ± 31.1%
  TpH≥6(%): 49.2 ± 25.2%
  ΔMean (pH): 2.8 ± 1.4 pH
  ΔMedian (pH): 3.1 ± 1.9 pH
  ΔTpH≥3(%): 60.0 ± 26.0%
  ΔTpH≥4 (%): 54.8 ± 28.3%
  ΔTpH≥6(%): 35.2 ± 25.6%
[1]
  Mean (pH): 5.7 ± 1.6 pH
  Median (pH): 6.2 ± 2.1 pH
  TpH≥3(%): 73.9 ± 21.7%
  TpH≥4(%): 69.3 ± 24.3%
  TpH≥6(%): 58.7 ± 31.9%
  ΔMean (pH): 3.2 ± 1.1 pH
  ΔMedian (pH): 3.9 ± 1.8 pH
  ΔTpH≥3(%): 48.6 ± 24.5%
  ΔTpH≥4 (%): 51.9 ± 17.7%
  ΔTpH≥6(%): 53.0 ± 27.4%
[2]
  Mean (pH): 5.7 ± 1.3 pH
  Median (pH): 5.9 ± 1.7 pH
  TpH≥3(%): 80.0 ± 19.5%
  TpH≥4(%): 73.0 ± 23.2%
  TpH≥6(%): 56.4 ± 24.1%
  ΔMean (pH): 2.8 ± 1.1^c pH
  ΔMedian (pH): 3.7 ± 1.5 pH
  ΔTpH≥3(%): 47.9 ± 20.2^c %
  ΔTpH≥4 (%): 50.4 ± 21.3^c %
  ΔTpH≥6(%): 47.4 ± 19.7^c %
[3]
  Mean (pH): 4.9 ± 1.7 pH
  Median (pH): 4.5 ± 2.0 pH
  TpH≥3(%): 67.5 ± 34.5%
  TpH≥4(%): 56.3 ± 37.2%
  TpH≥6(%): 37.1 ± 25.0^c %
  ΔMean (pH): 2.0 ± 1.2^c pH
  ΔMedian (pH): 2.1 ± 1.8^c pH
  ΔTpH≥3(%): 47.0 ± 27.6^c %
  ΔTpH≥4 (%): 38.6 ± 27.9^c %
  ΔTpH≥6(%): 21.1 ± 18.0^c %
[4]
  Mean (pH): 4.7 ± 2.4 pH
  Median (pH): 4.5 ± 2.8 pH
  TpH≥3(%): 63.7 ± 35.7%
  TpH≥4(%): 56.9 ± 39.3^c %
  TpH≥6(%): 39.4 ± 48.2%
  ΔMean (pH): 2.2 ± 0.8^c pH
  ΔMedian (pH): 1.9 ± 1.0^a^,^c pH
  ΔTpH≥3(%): 36.4 ± 20.1%
  ΔTpH≥4 (%): 35.0 ± 11.7%
  ΔTpH≥6(%): 33.8 ± 39.0%
[5]
  Mean (pH): 5.1 ± 1.7 pH
  Median (pH): 4.9 ± 2.1 pH
  TpH≥3(%): 70.1 ± 26.3%
  TpH≥4(%): 62.9 ± 33.1%
  TpH≥6(%): 48.0 ± 32.5%
  ΔMean (pH): 2.3 ± 0.6^c pH
  ΔMedian (pH): 2.9 ± 1.6 pH
  ΔTpH≥3(%): 40.8 ± 11.1^c %
  ΔTpH≥4 (%): 41.4 ± 17.3^c %
  ΔTpH≥6(%): 37.3 ± 19.1%
[6]
  Mean (pH): 4.1 ± 2.1 pH
  Median (pH): 3.5 ± 2.2 pH
  TpH≥3(%): 53.0 ± 41.0%
  TpH≥4(%): 44.6 ± 48.0%
  TpH≥6(%): 30.2 ± 32.6%
  ΔMean (pH): 1.2 ± 0.4^c pH
  ΔMedian (pH): 0.5 ± 0.5^c pH
  ΔTpH≥3(%): 31.5 ± 13.0^c %
  ΔTpH≥4 (%): 25.1 ± 16.9%
  ΔTpH≥6(%): 11.6 ± 2.9^c %
[7]
  Mean (pH): 6.6 ± 0.5 pH
  Median (pH): 7.8 ± 0.1 pH
  TpH≥3(%): 78.7 ± 10.0%
  TpH≥4(%): 77.1 ± 11.6^b %
  TpH≥6(%): 75.5 ± 12.2%
  ΔMean (pH): 4.3 ± 0.4^b pH
  ΔMedian (pH): 5.9 ± 0.4^b pH
  ΔTpH≥3(%): 62.5 ± 11.6%
  ΔTpH≥4 (%): 67.2 ± 2.4%
  ΔTpH≥6(%): 70.1 ± 4.5%
[8]
  Mean (pH): 6.8 ± 0.2 pH
  Median (pH): 7.5 ± 0.4 pH
  TpH≥3(%): 95.1 ± 1.1%
  TpH≥4(%): 87.9 ± 4.7%
  TpH≥6(%): 73.4 ± 3.7%
  ΔMean (pH): 4.3 ± 0.4^a^,^b pH
  ΔMedian (pH): 5.4 ± 0.3 pH
  ΔTpH≥3(%): 77.4 ± 6.3^a^,^b %
  ΔTpH≥4 (%): 78.0 ± 1.5^a^,^b %
  ΔTpH≥6(%): 68.7 ± 7.9%
[9]
  Mean (pH): 6.2 ± 0.4 pH
  Median (pH): 6.3 ± 1.3 pH
  TpH≥3(%): 96.8 ± 1.2%
  TpH≥4(%): 80.4 ± 6.2%
  TpH≥6(%): 51.5 ± 10.9%
  ΔMean (pH): 3.7 ± 0.5^a^,^b pH
  ΔMedian (pH): 4.2 ± 0.8^b pH
  ΔTpH≥3(%): 83.1 ± 5.9^a^,^b %
  ΔTpH≥4 (%): 72.4 ± 1.5%
  ΔTpH≥6(%): 45.8 ± 17.4^a^,^b %
